Where two headings read alike, the source gives them in different places.

One experiment concerns the target human β5i (Homo sapiens, UniProt P20618+P28062). In words: IC50 determination against human β5i of i-20S. The note with it: for reduction in potency against β5i: in comparing to PKS21221.
In a further experiment the target is human β5c (Homo sapiens, UniProt P20618+P28074). In words: IC50 determination against human β5c of c-20S.
In another experiment the target is β2i (Homo sapiens, UniProt P40306). In words: IC50 against β2i of human immunoproteasome (Z-VLR-AMC).
In a further experiment the target is β1i (Homo sapiens, UniProt P28065). In words: IC50 against β1i of human immunoproteasome (Ac-PAL-AMC).
A further experiment has as its target β1c (Homo sapiens, UniProt P28072). In words: IC50 against β1c of human constitutive proteasome (Z-LLE-AMC).
The next experiment deals with β2c (Homo sapiens, UniProt Q99436). In words: IC50 against β2c of human constitutive proteasome (Z-VLR-AMC).
Setting [1] is: read-out: IC50 against human β5i.
Where [2] appears, read: read-out: IC50 2i - VLR (β2i), substrate Z-VLR-AMC.
The mark [3] stands for this setting: read-out: IC50 1i - PAL (β1i), substrate Ac-PAL-AMC.
Setting [4] is: read-out: IC50 1c - LLE (β1c), substrate Z-LLE-AMC.
Setting [5] is: read-out: IC50 2c - VLR (β2c), substrate Z-VLR-AMC.

Method for human β5c: (§1) IC50s of all compounds against β5i and β5c (Table 2) and against β1i, β2i, β1c, and β2c (Supplementary Table 1) were determined following reported methods[8].
Method for human β5i: as §1
Method for β1c: as §1
Method for β1i: as §1
Method for β2c: as §1
Method for β2i: as §1

For orientation: IC50 means the concentration at which inhibition is half-maximal. Consider `CC(C)(C)NC(=O)C[C@H](NC(=O)CCc1ccccc1)C(=O)NCCNC(=O)c1cccc2ccccc12` [PKS3080], for which the IC50 on human β5i (setting [1]) is 0.37 µM; on human β5c (read-out: IC50 against human β5c), 1.22 µM; on β2i (setting [2]), above 50 µM; at β1i (setting [3]), above 50 µM; on β1c (setting [4]) it was above 50 µM; at β2c (setting [5]), above 50 µM.
As to `CC(C)(C)NC(=O)C[C@H](NC(=O)CCc1ccccc1)C(=O)NCCNC(=O)c1ccc(-c2ccccc2)cc1` [PKS21003], the IC50 was above 100 µM against human β5i; above 100 µM against human β5c; above 50 µM on β2i; above 50 µM against β1i; above 50 µM against β1c; above 50 µM against β2c. Besides, the “inhibitory activity against β5i (in words)” value at human β5i is “inactive”. In addition, at human β5c, the “inhibitory activity against β5c (in words)” value is “inactive”.
For the molecule `CC(CNC(=O)c1cccc(-c2ccccc2)c1)NC(=O)[C@H](CC(=O)NC(C)(C)C)NC(=O)CCc1ccccc1` (stereo partly shown) [PKS21018], the IC50 at β2i (setting [2]), on β1i (setting [3]), on β1c (setting [4]) and at β2c (setting [5]) was above 50 µM in each case.
Consider `CC(C)(C)NC(=O)C[C@H](NC(=O)CCc1ccccc1)C(=O)NCCNC(=O)c1ccc2ccccc2c1` [PKS21025], for which the “selectivity for β5i over β5c” value at human β5i was 26 fold. Further, the “improvement of potency against β5i” value at human β5i (relative to PKS3080) was found to be 3 fold. The IC50 on β2i (setting [2]), on β1i (setting [3]), on β1c (setting [4]) and on β2c (setting [5]) was above 50 µM throughout.
On to `CC(C)(C)NC(=O)C[C@H](NC(=O)CCc1ccccc1)C(=O)NCCNC(=O)c1cccc(-c2ccc(F)cc2)c1` [PKS21026], for which the IC50 on β2i (setting [2]), at β1i (setting [3]), at β1c (setting [4]) and at β2c (setting [5]) was above 50 µM each time.
Regarding `CC(C)(C)NC(=O)C[C@H](NC(=O)CCc1ccccc1)C(=O)NCCNC(=O)c1cccc(-c2ccc(C#N)cc2)c1` [PKS21028], the IC50 on β2i (setting [2]), on β1i (setting [3]), on β1c (setting [4]) and at β2c (setting [5]) was above 50 µM each time.
As for `CC(C)(C)NC(=O)C[C@H](NC(=O)CCc1ccccc1)C(=O)NCCNC(=O)c1cc(-c2ccccc2F)ccc1F` [PKS21187], the “selectivity for β5i over β5c” value on human β5i is ~ 20 fold. The IC50 on human β5i (setting [1]) is 0.015 µM; on β2i (setting [2]), above 50 µM; at β1i (setting [3]), above 50 µM; on β1c (setting [4]), above 50 µM; at β2c (setting [5]), above 50 µM.
Take `CC(C)(C)NC(=O)C[C@H](NC(=O)CCc1ccccc1)C(=O)NCCNC(=O)c1cc(-c2cccc(F)c2)ccc1F` [PKS21195]: the concentration for half-maximal inhibition (IC50) on β2i (setting [2]), at β1i (setting [3]), at β1c (setting [4]) and at β2c (setting [5]) was above 50 µM each time.
For `CC(C)(C)NC(=O)C[C@H](NC(=O)CCc1ccccc1)C(=O)NCCNC(=O)c1cc(-c2ccccc2)ccc1F` [PKS21196], the IC50 on β2i (setting [2]), at β1i (setting [3]), at β1c (setting [4]) and at β2c (setting [5]) was above 50 µM in each case.
As for `CC(C)(C)NC(=O)C[C@H](NC(=O)OC(C)(C)C)C(=O)NCCNC(=O)c1cc(-c2ccccc2F)ccc1F` [PKS21277], the “inhibitory activity against β5i (in words)” value on human β5i is recorded as “modestly potent”. For the same molecule, the “selectivity for β5i over β5c” value on human β5i is recorded as 36 fold. In addition, the IC50 at β2i (setting [2]), at β1i (setting [3]), on β1c (setting [4]) and at β2c (setting [5]) was above 50 µM each time.
Take `CC(C)(C)OC(=O)N[C@@H](CC(N)=O)C(=O)NCCNC(=O)c1cc(-c2ccccc2F)ccc1F` [PKS21281]: the “inhibitory activity against β5i (in words)” value against human β5i is reported as “abolished the inhibitory activities”. Besides, at human β5c, the “inhibitory activity against β5c (in words)” value is “abolished the inhibitory activities”. Also, the IC50 at β2i (setting [2]), at β1i (setting [3]), on β1c (setting [4]) and at β2c (setting [5]) was above 50 µM each time.
Consider `Cc1ccc(S(=O)(=O)N[C@@H](CC(N)=O)C(=O)NCCNC(=O)c2cc(-c3ccccc3F)ccc2F)cc1` [PKS21288], for which, on human β5i, the “inhibitory activity against β5i (in words)” value is listed as “eliminated inhibitory activity”. The “inhibitory activity against β5c (in words)” value against human β5c is listed as “eliminated inhibitory activity”. In addition, the IC50 on β2i (setting [2]), at β1i (setting [3]), at β1c (setting [4]) and on β2c (setting [5]) was above 50 µM in each case.
Regarding `Cc1ccc(S(=O)(=O)NCC(=O)NCCNC(=O)c2cc(-c3ccccc3F)ccc2F)cc1` [PKS21289], the “inhibitory activity against β5i (in words)” value against human β5i is “eliminated inhibitory activity”. The “inhibitory activity against β5c (in words)” value on human β5c is “eliminated inhibitory activity”. For the same molecule, the IC50 on β2i (setting [2]), on β1i (setting [3]), on β1c (setting [4]) and on β2c (setting [5]) was above 50 µM throughout.
`Cc1ccc(S(=O)(=O)N[C@@H](C)C(=O)NCCNC(=O)c2cc(-c3ccccc3F)ccc2F)cc1` [PKS21290]: the “inhibitory activity against β5i (in words)” value on human β5i is “eliminated inhibitory activity”. For the same molecule, at human β5c, the “inhibitory activity against β5c (in words)” value is recorded as “eliminated inhibitory activity”. For the same molecule, the half-inhibitory concentration (IC50) at β2i (setting [2]), on β1i (setting [3]), on β1c (setting [4]) and on β2c (setting [5]) was above 50 µM in each case.
In the case of `CC(C)(C)NC(=O)C[C@H](NS(=O)(=O)C1CC1)C(=O)NCCNC(=O)c1cc(-c2ccccc2F)ccc1F` [PKS21293], the “selectivity for β5i over β5c” value at human β5i is given as 64 fold. Moreover, the “reduction in potency against β5i” value at human β5i is 3.7 fold. Moreover, the half-maximal inhibitory concentration (IC50) on β2i (setting [2]), on β1i (setting [3]), on β1c (setting [4]) and on β2c (setting [5]) was above 50 µM throughout.
As for `CC(=O)N[C@@H](CC(=O)NC(C)(C)C)C(=O)NCCNC(=O)c1cc(-c2ccccc2F)ccc1F` [PKS21294], the “reduction in potency against β5i” value at human β5i is 150 fold. The “reduction in potency against β5c” value on human β5c (in comparing to PKS21221) is reported as 120 fold. Also, the IC50 at β2i (setting [2]), on β1i (setting [3]), at β1c (setting [4]) and on β2c (setting [5]) was above 50 µM each time.

The values are drawn from publication PMC5700161, “Structure of human immunoproteasome with a reversible and noncompetitive inhibitor that selectively inhibits activated lymphocytes” (Nature Communications, 2017).
